This is an account of results in ChEMBL document CHEMBL1201862, “PubChem BioAssay data set” (2004).

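Briefly, cells in 96-well plates were exposed to five compound concentrations for 48 h, and endpoints were estimated by linear interpolation. Abbreviation: GI50, concentration required for 50% inhibition of growth.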 Calls of active or inactive are those of the source. Cut-off read from the data, not from the text of the source: active = GI50 up to about 1.1 µM and inactive = higher. A value given as a limit tells only on which side of the number the result lay.

Assay in all cases: NCI-60 cell line screen, 48 h
Assay [1] has as its system Hs-578T.
In assay [2] the test system is SK-MEL-2.
Assay [3] concerns SK-MEL-28.
The test system of assay [4] is T47D.
Assay [5] concerns HOP-92.
Assay [6] relates to A549.
Assay [7] relates to 786-0.
In assay [8] the test system is K562.
Assay [9] concerns NCI-H23.
For assay [10], the system named is HCT-15.
In assay [11] the test system is MDA-MB-231.
Assay [12] relates to OVCAR-4.
The subject of assay [13] is SK-OV-3.
For assay [14], the system named is MDA-MB-435.
For assay [15], the system named is PC-3.
The subject of assay [16] is EKVX.
For assay [17], the system named is IGROV-1.
For assay [18], the system named is HCC 2998.
Assay [19] has as its system UACC-257.

Regarding `CC1(C)Oc2ccc(NC(=O)CCC(N)C(=O)O)cc2O1` (stereo not given), the GI50 in assay [1], in assay [2], in assay [3], in assay [4], in [5] and in assay [6] was > 100 µM (inactive) throughout. Further, the GI50 is > 100 µM (inactive) in [7]; > 100 µM (inactive) in assay [8]; > 100 µM (inactive) in assay [9]; > 100 µM in [10]; > 100 µM (inactive) in assay [11]; > 100 µM (inactive) in assay [12]. The GI50 in assay [13], in [14], in assay [15], in [16], in assay [17] and in [18] was > 100 µM (inactive) in each case.
In the case of `C=CCOC(OCC=C)/C(Br)=C/C`, the GI50 in assay [1] is 26.8 µM (inactive); in [2], 68.2 µM (inactive); in assay [3], > 100 µM (inactive); in assay [4], 31.8 µM (inactive); in [5] it was 56.5 µM (inactive); in [6], > 100 µM (inactive). For the same compound, the GI50 in assay [7] is 11.2 µM (inactive); in assay [8], > 100 µM (inactive); in [9] it was 31 µM (inactive); in assay [19], > 100 µM (inactive); in assay [10], 24 µM; in [11], > 100 µM (inactive). Moreover, the GI50 in [12] is 24.5 µM (inactive); in assay [13], > 100 µM (inactive); in assay [14], 26.9 µM (inactive); in assay [15], 93.1 µM (inactive); in assay [16], 35.9 µM (inactive); in assay [18], 80.9 µM (inactive).
Regarding `COC(=O)C(Cc1ccccc1)C(=O)NC(CNC(=O)OCc1ccccc1)C(=O)OCc1ccccc1` (stereo not given), the GI50 is > 63.5 µM (inactive) in assay [1]; 24.1 µM (inactive) in assay [2]; 19.3 µM (inactive) in assay [3]; 36.1 µM (inactive) in [4]; 32.1 µM (inactive) in assay [5]; 25.9 µM (inactive) in assay [7]. The GI50 in assay [8] was 15.6 µM (inactive); in assay [9] it was 43.6 µM (inactive); in assay [19], 17.6 µM (inactive); in [10], 45.7 µM; in [11], 20.8 µM (inactive); in assay [12], 38.3 µM (inactive). Further, the GI50 in [13] was > 100 µM (inactive); in assay [14], 21.8 µM (inactive); in assay [15] it was 38.2 µM (inactive); in assay [16], 76.7 µM (inactive); in assay [17], 65.6 µM (inactive); in assay [18] it was 30.8 µM (inactive).
Take `Nn1c(SCC(=O)O)nc2ccccc2c1=O`: the GI50 in assay [1], in assay [2], in assay [3], in [4], in [5] and in [6] was > 100 µM (inactive) in each case. The GI50 in assay [7] was > 100 µM (inactive); in assay [8], > 100 µM (inactive); in assay [9] it was > 100 µM (inactive); in assay [19] it was > 100 µM (inactive); in assay [10], > 100 µM; in assay [11], > 100 µM (inactive). Moreover, the GI50 in assay [12], in [14], in [15], in [16], in [17] and in [18] was > 100 µM (inactive) each time.
With `COc1ccc2c(=O)c3c([nH]c2c1)OCC3=O`, the GI50 in [1], in [2], in assay [3], in [4], in assay [5] and in assay [7] was > 100 µM (inactive) each time. Besides, the GI50 in assay [8] is 36.5 µM (inactive); in assay [9] it was > 100 µM (inactive); in assay [19], > 100 µM (inactive); in assay [10], > 100 µM; in assay [11] it was > 100 µM (inactive); in assay [12] it was > 100 µM (inactive). Moreover, the GI50 in assay [13], in assay [14], in assay [15], in assay [16], in assay [17] and in [18] was > 100 µM (inactive) throughout.
As to `Clc1ccc(/C=N/c2ccc(Oc3ccc(Cl)cc3)c(Cl)c2)cc1`, the GI50 in assay [1] is 21.5 µM (inactive); in assay [2] it was 22.1 µM (inactive); in [3] it was 23.6 µM (inactive); in assay [4], 19.5 µM (inactive); in assay [5], 19.4 µM (inactive); in assay [6], 22.3 µM (inactive). Besides, the GI50 was 17.9 µM (inactive) in [7]; 23.5 µM (inactive) in [9]; 30.9 µM (inactive) in [19]; 21.8 µM in assay [10]; 22 µM (inactive) in [11]; 25.3 µM (inactive) in assay [12]. Also, the GI50 was 27 µM (inactive) in assay [13]; 29.7 µM (inactive) in assay [14]; 22.1 µM (inactive) in assay [15]; 27.8 µM (inactive) in [16]; 38.5 µM (inactive) in [17]; 21.5 µM (inactive) in assay [18].
With `CN(CCNC(=O)c1nn(-c2ccccc2)c2c1ccc1ccccc12)CCNC(=O)c1nn(-c2ccccc2)c2c1ccc1ccccc12`, the GI50 in [1] is 2.14 µM (inactive); in [2], 1.86 µM (inactive); in assay [3], 1.7 µM (inactive); in assay [4], 2.41 µM (inactive); in assay [5], 1.73 µM (inactive); in assay [6] it was 2.94 µM (inactive). The GI50 is 1.67 µM (inactive) in assay [7]; 2.51 µM (inactive) in [9]; 1.71 µM (inactive) in [19]; 1.76 µM in [10]; 1.29 µM (inactive) in assay [11]; 3.39 µM (inactive) in assay [12]. Also, the GI50 was 2.09 µM (inactive) in [13]; 1.97 µM (inactive) in assay [14]; 2.13 µM (inactive) in assay [15]; 1.98 µM (inactive) in assay [16]; 1.98 µM (inactive) in assay [17]; 1.53 µM (inactive) in [18].
For the compound `CS(=N)(=O)CCC(N)P(=O)(O)O` (stereo not given), the GI50 in assay [1], in assay [2], in assay [3], in [4], in assay [5] and in assay [6] was > 100 µM (inactive) throughout. Also, the GI50 in [7] was > 100 µM (inactive); in [8] it was > 100 µM (inactive); in [9], > 100 µM (inactive); in assay [19] it was > 100 µM (inactive); in [10], > 100 µM; in [11] it was > 100 µM (inactive). Besides, the GI50 in assay [12], in [13], in [14], in [15], in assay [16] and in assay [17] was > 100 µM (inactive) in each case. Further, the GI50 in [18] is > 100 µM (inactive).
